{"source": "patent US20030180248A1", "about": "“Cosmetic composition containing the extract of mountain ginseng adventitious roots” (priority 2001, published 2003)", "test_system": "transformed mouse fibroblast L929 cells", "experiment": "Cytotoxicity, Neutral Red uptake", "assay_type": "cell-based", "settings": "48 hours", "excerpt": "Extracts from tissue-cultured mountain ginseng adventitious roots, prepared in Examples 1 to 3, were examined for cytotoxicity, in comparison with a red ginseng extract and arbutin, which are conventionally used as skin-whitening materials.\nAfter being recovered by trypsinization, the transformed mouse fibroblast L929 cells were suspended in DMEM supplemented with 2% BCS (bovine calf serum), and the suspension was aliquoted at a concentration of 2,500-3,000 cells/well into each well of 96 well tissue culture plates, followed by incubation at 37° C. for 48 hours in a 5% CO2 atmosphere. After substitution of the medium with a fresh, serum-free one, the cells were treated with the test materials shown in Table 2, below, and cultured for 48 hours. To each well, Neutral Red (50 μg/ml) was added, and reacted with cells for 3 hours. After completion of the accumulation of Neutral Red in live cells, the dye was fixed with the use of 1.0% formalin/1.0% CaCl2. Neutral Red was extracted from cells using 1.0% acetic acid/50% ethanol solution. The extracted Neutral Red was analyzed by ELISA to measure the cytotoxicity of the test materials according to concentrations.", "data": [{"smiles": "OC[C@H]1O[C@@H](Oc2ccc(O)cc2)[C@H](O)[C@@H](O)[C@@H]1O", "note": "[Arbutin]", "values": [{"measurement": "NR50", "setting": "Neutral Red", "value": 0.29, "unit": "w/w %"}, {"measurement": "Cytotoxicity (Neutral Red reading)", "setting": "concentration 0.001 w/w %", "value": 98}, {"measurement": "Cytotoxicity (Neutral Red reading)", "setting": "concentration 0.01 w/w %", "value": 82}, {"measurement": "Cytotoxicity (Neutral Red reading)", "setting": "concentration 0.1 w/w %", "value": 63}, {"measurement": "Cytotoxicity (Neutral Red reading)", "setting": "concentration 1 w/w %", "value": 2}]}]}
